Assays:
[1] = biological target: α-amylase from malt; experiment: α-Amylase inhibitory assay; assay type: biochemical; conditions: for IC50: in vitro
Text: The analytical grade chemicals and reagents were used as such in experiments without any purification. Decibel melting point apparatus was used for checking the melting point of the synthesized compounds and are reported as uncorrected. The silica gel-precoated aluminum sheets for thin-layer chromatography (TLC) were employed to keep a vigil of the reaction progress. FT-IR (Diffuse Reflectance Method (DRS) -8000A, Shimadzu, Japan) spectrophotometer was utilized for recording infrared spectra and the Bruker Avance III, 400 MHz NMR spectrometer was employed for nuclear magnetic resonance spectra (^1H NMR, ^13C NMR; Chemical shift δ values- ppm). α-Glucosidase from Saccharomyces cerevisiae (EC 3.2.1.20, Sigma Aldrich) and α-amylase from malt (232-588-1, HiMedia) have been used for in vitro studies.
Xiao et al., and Yoshikawa et al., illustrated a method, with little modification this method has been adopted for measuring the activity.

[2] = biological target: T1, α-Glucosidase from Saccharomyces cerevisiae (Saccharomyces cerevisiae, UniProt P53341); experiment: α-Glucosidase inhibitory assay; assay type: biochemical; conditions: for IC50: in vitro
T1 construct: purchased Sigma Aldrich
T1 sequence (P53341 whole entry): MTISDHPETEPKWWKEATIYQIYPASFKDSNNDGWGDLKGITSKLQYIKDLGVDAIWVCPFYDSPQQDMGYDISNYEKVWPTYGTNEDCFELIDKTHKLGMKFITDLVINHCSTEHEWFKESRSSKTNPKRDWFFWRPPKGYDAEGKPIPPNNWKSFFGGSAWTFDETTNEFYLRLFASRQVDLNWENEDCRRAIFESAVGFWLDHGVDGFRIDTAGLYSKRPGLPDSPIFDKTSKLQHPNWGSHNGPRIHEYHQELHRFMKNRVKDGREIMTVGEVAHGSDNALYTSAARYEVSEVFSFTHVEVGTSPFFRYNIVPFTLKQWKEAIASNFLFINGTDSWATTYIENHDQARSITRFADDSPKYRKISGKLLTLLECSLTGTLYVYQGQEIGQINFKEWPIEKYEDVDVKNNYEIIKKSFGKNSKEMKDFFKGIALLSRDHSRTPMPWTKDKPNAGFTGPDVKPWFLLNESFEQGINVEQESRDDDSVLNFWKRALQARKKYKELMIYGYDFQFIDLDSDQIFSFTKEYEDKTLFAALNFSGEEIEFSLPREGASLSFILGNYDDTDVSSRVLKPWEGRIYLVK
Text: The analytical grade chemicals and reagents were used as such in experiments without any purification. Decibel melting point apparatus was used for checking the melting point of the synthesized compounds and are reported as uncorrected. The silica gel-precoated aluminum sheets for thin-layer chromatography (TLC) were employed to keep a vigil of the reaction progress.
The method adopted for performing α-glucosidase inhibitory assay was similar to our prevenient study, Thakral and Singh.

Compound	IC50 [1] [µM]	melting point [°C]	IC50 [2] [µM]	inhibitory activity against α-amylase in comparison to standard drug acarbose ([1]; fold relative to acarbose)	inhibitory potential against α-glucosidase in comparison to standard drug acarbose ([2]; fold relative to acarbose)
O=C(Nc1ccc([N+](=O)[O-])cc1)c1cc(S(=O)(=O)Nc2ccc(Cl)cc2)c([N+](=O)[O-])cc1Cl [Compound 5q]	11.2 ± 0.67	177 to 179	43.9 ± 1.18		
O=C(Nc1cccc(Cl)c1)c1cc(S(=O)(=O)Nc2ccc(Cl)cc2)c([N+](=O)[O-])cc1Cl [Compound 5i, 2-Chloro-N-(3-chlorophenyl)-5-[(4-chlorophenyl)sulfamoyl]-4-nitrobenzamide]	27.1 ± 0.51	220 to 222	14 ± 0.93		
O=C(Nc1ccc([N+](=O)[O-])cc1Cl)c1cc(S(=O)(=O)Nc2ccc(Cl)cc2)c([N+](=O)[O-])cc1Cl [Compound 5n, 2-Chloro-N-(2-chloro-4-nitrophenyl)-5-[(4-chlorophenyl)sulfamoyl]-4-nitrobenzamide]	35.3 ± 0.45	214 to 216	29.5 ± 1.53		
O=C(NCc1ccco1)c1cc(S(=O)(=O)Nc2ccc(Cl)cc2)c([N+](=O)[O-])cc1Cl [Compound 5u, 2-Chloro-5-[(4-chlorophenyl)sulfamoyl]-N-[(furan-2-yl)methyl]-4-nitrobenzamide]	38.2 ± 0.34	191 to 193	89 ± 1.76		
O=C(Nc1ccccc1Cl)c1cc(S(=O)(=O)Nc2ccc(Cl)cc2)c([N+](=O)[O-])cc1Cl [Compound 5j, 2-Chloro-N-(2-chlorophenyl)-5-[(4-chlorophenyl)sulfamoyl]-4-nitrobenzamide]	20.9 ± 1.24	176 to 178	15.8 ± 0.9		
O=C(Nc1ccncc1)c1cc(S(=O)(=O)Nc2ccc(Cl)cc2)c([N+](=O)[O-])cc1Cl [Compound 5v, 2-Chloro-5-[(4-chlorophenyl)sulfamoyl]-4-nitro-N-(pyridin-4-yl)benzamide]	40.4 ± 0.87	197 to 199	52.4 ± 1.92		
Cc1cc([N+](=O)[O-])ccc1NC(=O)c1cc(S(=O)(=O)Nc2ccc(Cl)cc2)c([N+](=O)[O-])cc1Cl [Compound 5p, 2-Chloro-5-[(4-chlorophenyl)sulfamoyl]-N-(2-methyl-4-nitrophenyl)-4-nitrobenzamide]	2.1 ± 0.52	104 to 106	19.5 ± 0.43		
Cc1cccc(NC(=O)c2cc(S(=O)(=O)Nc3ccc(Cl)cc3)c([N+](=O)[O-])cc2Cl)c1 [Compound 5b, 2-Chloro-5-[(4-chlorophenyl)sulfamoyl]-N-(3-methylphenyl)-4-nitrobenzamide]	5.3 ± 1.23	102 to 104	24.8 ± 2.69		
Cc1ccc(NC(=O)c2cc(S(=O)(=O)Nc3ccc(Cl)cc3)c([N+](=O)[O-])cc2Cl)cc1 [Compound 5a, 2-Chloro-5-[(4-chlorophenyl)sulfamoyl]-N-(4-methylphenyl)-4-nitrobenzamide]	7.4 ± 0.15	90 to 92	31.4 ± 1.66		
CCCCNC(=O)c1cc(S(=O)(=O)Nc2ccc(Cl)cc2)c([N+](=O)[O-])cc1Cl [Compound 5t, N-Butyl-2-chloro-5-[(4-chlorophenyl)sulfamoyl]-4-nitrobenzamide]	55.1 ± 0.71	111 to 113	131 ± 2.42		
O=C(Nc1ccccc1[N+](=O)[O-])c1cc(S(=O)(=O)Nc2ccc(Cl)cc2)c([N+](=O)[O-])cc1Cl [Compound 5k, 2-Chloro-5-[(4-chlorophenyl)sulfamoyl]-4-nitro-N-(2-nitrophenyl)benzamide]	12.5 ± 0.91	150 to 152	36.9 ± 1.3		
O=C(Nc1cccc(Br)c1)c1cc(S(=O)(=O)Nc2ccc(Cl)cc2)c([N+](=O)[O-])cc1Cl [Compound 5g, N-(3-Bromophenyl)-2-chloro-5-[(4-chlorophenyl)sulfamoyl]-4-nitrobenzamide]	16.7 ± 0.41	181 to 183	35.9 ± 0.6		
Cc1ccc([N+](=O)[O-])cc1NC(=O)c1cc(S(=O)(=O)Nc2ccc(Cl)cc2)c([N+](=O)[O-])cc1Cl [Compound 5o, 2-Chloro-5-[(4-chlorophenyl)sulfamoyl]-N-(2-methyl-5-nitrophenyl)-4-nitrobenzamide]	0.9 ± 0.31	203 to 205	10.8 ± 0.52	around six times	fourfold
Cc1ccccc1NC(=O)c1cc(S(=O)(=O)Nc2ccc(Cl)cc2)c([N+](=O)[O-])cc1Cl [Compound 5c, 2-Chloro-5-[(4-chlorophenyl)sulfamoyl]-N-(2-methylphenyl)-4-nitrobenzamide]	8 ± 0.71	88 to 90	26.8 ± 1.13		
Cc1c(NC(=O)c2cc(S(=O)(=O)Nc3ccc(Cl)cc3)c([N+](=O)[O-])cc2Cl)cccc1[N+](=O)[O-] [Compound 5m, 2-Chloro-5-[(4-chlorophenyl)sulfamoyl]-N-(2-methyl-3-nitrophenyl)-4-nitrobenzamide]	1.52 ± 0.84	170 to 172	24.5 ± 1.23		
O=C(Nc1ccc(Br)cc1)c1cc(S(=O)(=O)Nc2ccc(Cl)cc2)c([N+](=O)[O-])cc1Cl [Compound 5f, N-(4-Bromophenyl)-2-chloro-5-[(4-chlorophenyl)sulfamoyl]-4-nitrobenzamide]	16 ± 0.33	200 to 202	50.2 ± 0.89		
O=C(Nc1ccccc1Br)c1cc(S(=O)(=O)Nc2ccc(Cl)cc2)c([N+](=O)[O-])cc1Cl [Compound 5h, N-(2-Bromophenyl)-2-chloro-5-[(4-chlorophenyl)sulfamoyl]-4-nitrobenzamide]	19.3 ± 0.63	180 to 182	40.6 ± 1.49		
COc1ccc(NC(=O)c2cc(S(=O)(=O)Nc3ccc(Cl)cc3)c([N+](=O)[O-])cc2Cl)cc1 [Compound 5d, 2-Chloro-5-[(4-chlorophenyl)sulfamoyl]-N-(4-methoxyphenyl)-4-nitrobenzamide]	38 ± 0.51	150 to 152	38.57 ± 0.01		
C[C@H]1O[C@H](O[C@H]2[C@H](O)[C@@H](O)[C@@H](O[C@H]3[C@H](O)[C@@H](O)C(O)O[C@@H]3CO)O[C@@H]2CO)[C@H](O)[C@@H](O)[C@@H]1N[C@H]1C=C(CO)[C@@H](O)[C@H](O)[C@H]1O (stereo partly drawn) [Acarbose, reference compound]	5.6 ± 0.3				
CCCNC(=O)c1cc(S(=O)(=O)Nc2ccc(Cl)cc2)c([N+](=O)[O-])cc1Cl [Compound 5s, 2-Chloro-5-[(4-chlorophenyl)sulfamoyl]-4-nitro-N-propylbenzamide]	48.05 ± 0.23	116 to 118	106.2 ± 0.61		
O=C(Nc1cccc([N+](=O)[O-])c1)c1cc(S(=O)(=O)Nc2ccc(Cl)cc2)c([N+](=O)[O-])cc1Cl [Compound 5r, 2-Chloro-5-[(4-chlorophenyl)sulfamoyl]-4-nitro-N-(3-nitrophenyl)benzamide]	15.3 ± 1.24	135 to 137	34.4 ± 0.62		
COc1ccccc1NC(=O)c1cc(S(=O)(=O)Nc2ccc(Cl)cc2)c([N+](=O)[O-])cc1Cl [Compound 5e, 2-Chloro-5-[(4-chlorophenyl)sulfamoyl]-N-(2-methoxyphenyl)-4-nitrobenzamide]	50.3 ± 0.21	164 to 166	41.7 ± 1.08		
Cc1c(Cl)cccc1NC(=O)c1cc(S(=O)(=O)Nc2ccc(Cl)cc2)c([N+](=O)[O-])cc1Cl [Compound 5l, 2-Chloro-N-(3-chloro-2-methylphenyl)-5-[(4-chlorophenyl)sulfamoyl]-4-nitrobenzamide]	6.3 ± 0.42	212 to 214	29 ± 0.86		
